Columns and labels:
[1] = tested on: SIVmac251; assay: Formation of syncytia in HUT78 cells infected with SIVmac251; assay type: cell-based, SIV
Protocol: HUT78 cells were inoculated in 96-well plates in an amount of 2×10^4 cells per well, in […]. They were infected with various viral concentrations and DABF-AmB was added immediately after the infection, at various concentrations. The formation of syncytia was evaluated after 3 and 5 days by direct reading under an inverted microscope (semi-quantitative test).

[2] = biological target: protease p10 (Human immunodeficiency virus type 1 (BRU ISOLATE), UniProt P03367); assay: Activity on recombinant protease p10; assay type: biochemical; settings: 1 μM for DABF-AmB
Protocol: DABF-AmB was tested, at a concentration of 1 μM, on various proteases (papain, chymotrypsin, kallicrein, leucocyte elastase, cathopsin D and recombinant protease p10) under conditions and in the presence of substrates appropriate for each of the proteases tested.

With C[C@@H]1[C@H](O)[C@@H](C)/C=C/C=C/C=C/C=C/C=C/C=C/C=C/[C@H](O[C@@H]2O[C@H](C)[C@@H](O)[C@H](NCC(=O)[C@@H](O)[C@@H]3OC(c4ccccc4)OC[C@H]3O)[C@@H]2O)C[C@@H]2O[C@](O)(C[C@@H](O)C[C@@H](O)[C@H](O)CC[C@@H](O)C[C@@H](O)CC(=O)O[C@H]1C)C[C@H](O)[C@H]2C(=O)O (stereo partly drawn) [DABF-AmB, 1-deoxy-1-amino-4,6-O-benzylidene-D-fructosyl-AmB] the formation of syncytia ([1]; 0.1 μM, 10 TCID50, 3 days) was “-”, the formation of syncytia ([1]; 0.1 μM, 10 TCID50, 5 days) was “+” and the formation of syncytia ([1]; 0.1 μM, 100 TCID50, 3 days) was “+”. The formation of syncytia ([1]; 0.5 μM, 10 TCID50, 3 days) was “-”, the formation of syncytia ([1]; 0.5 μM, 10 TCID50, 5 days) was “+” and the formation of syncytia ([1]; 0.5 μM, 100 TCID50, 3 days) was “+”. The formation of syncytia ([1]; 1 μM, 10 TCID50, 3 days) was “-”, the formation of syncytia ([1]; 1 μM, 10 TCID50, 5 days) was “+” and the formation of syncytia ([1]; 1 μM, 100 TCID50, 3 days) was “+”. For the same molecule, the formation of syncytia ([1]; 5 μM, 10 TCID50, 3 days) was “-”, the formation of syncytia ([1]; 5 μM, 10 TCID50, 5 days) was “- and +” and the formation of syncytia ([1]; 5 μM, 100 TCID50, 3 days) was “- and +”. The formation of syncytia ([1]; 5 μM, 100 TCID50, 5 days) was “- and +”, the formation of syncytia ([1]; 5 μM, 500 TCID50, 3 days) was “- and +” and the formation of syncytia ([1]; 5 μM, 500 TCID50, 5 days) was “+ and -”. For the same molecule, the formation of syncytia ([1]; 10 μM, 10 TCID50, 3 days) was “-”, the formation of syncytia ([1]; 10 μM, 10 TCID50, 5 days) was “-” and the formation of syncytia ([1]; 10 μM, 100 TCID50, 3 days) was “-”. For the same molecule, the formation of syncytia ([1]; 10 μM, 100 TCID50, 5 days) was “- and +”, the formation of syncytia ([1]; 10 μM, 500 TCID50, 3 days) was “-” and the formation of syncytia ([1]; 10 μM, 500 TCID50, 5 days) was “- and +”. The formation of syncytia ([1]; 50 μM, 10 TCID50, 3 days) was “-”, the formation of syncytia ([1]; 50 μM, 100 TCID50, 3 days) was “-” and the formation of syncytia ([1]; 50 μM, 100 TCID50, 5 days) was “-”. The formation of syncytia ([1]; 50 μM, 500 TCID50, 3 days) was “-”, the formation of syncytia ([1]; 50 μM, 500 TCID50, 5 days) was “-” and the formation of syncytia ([1]; 100 μM, 10 TCID50, 5 days) was “-”. For the same molecule, the formation of syncytia ([1]; 100 μM, 100 TCID50, 3 days) was “-”, the formation of syncytia ([1]; 100 μM, 100 TCID50, 5 days) was “-” and the formation of syncytia ([1]; 100 μM, 500 TCID50, 3 days) was “-”. For the same molecule, the formation of syncytia ([1]; 100 μM, 500 TCID50, 5 days) was “-”, the “inhibition of formation of syncytia (in words)” value ([1]; HUT78, SIV) was “in a dose-dependent manner” and the “inhibition of protease p10” value [2] was “does not inhibit”.
